pIC50: −log10 of the molar value. Structures can show the parent of a compound that is named as a salt. Where two headings read alike, the source gives them in different places.
Key:
JH2 domain of human Tyk2 = JH2 domain of human Tyk2 (Homo sapiens (Human), UniProt P29597); assay: JH2 Biochemical Assay (TR-FRET probe displacement); format: binding
Tyk2 = Tyk2 (Homo sapiens (Human), UniProt P29597); assay: pSTAT4 Cell Assay (MSD, NK92 cells); format: cell-based
[1] = TR-FRET probe displacement, JH2 domain of human Tyk2
[2] = JH2 domain of human Tyk2, TR-FRET probe displacement
[3] = TR-FRET probe displacement, JH2 domain

Sequence of JH2 domain of human Tyk2 (P29597 575-876): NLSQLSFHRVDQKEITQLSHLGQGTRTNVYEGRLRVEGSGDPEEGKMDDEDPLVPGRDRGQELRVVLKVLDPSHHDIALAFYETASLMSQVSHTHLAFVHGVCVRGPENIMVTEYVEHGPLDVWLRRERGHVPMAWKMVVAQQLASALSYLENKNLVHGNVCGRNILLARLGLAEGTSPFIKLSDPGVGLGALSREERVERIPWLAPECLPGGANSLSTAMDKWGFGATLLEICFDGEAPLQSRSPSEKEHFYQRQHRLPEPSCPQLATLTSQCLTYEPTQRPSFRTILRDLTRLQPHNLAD
Sequence of Tyk2 (P29597 whole entry, the tested form may be a part): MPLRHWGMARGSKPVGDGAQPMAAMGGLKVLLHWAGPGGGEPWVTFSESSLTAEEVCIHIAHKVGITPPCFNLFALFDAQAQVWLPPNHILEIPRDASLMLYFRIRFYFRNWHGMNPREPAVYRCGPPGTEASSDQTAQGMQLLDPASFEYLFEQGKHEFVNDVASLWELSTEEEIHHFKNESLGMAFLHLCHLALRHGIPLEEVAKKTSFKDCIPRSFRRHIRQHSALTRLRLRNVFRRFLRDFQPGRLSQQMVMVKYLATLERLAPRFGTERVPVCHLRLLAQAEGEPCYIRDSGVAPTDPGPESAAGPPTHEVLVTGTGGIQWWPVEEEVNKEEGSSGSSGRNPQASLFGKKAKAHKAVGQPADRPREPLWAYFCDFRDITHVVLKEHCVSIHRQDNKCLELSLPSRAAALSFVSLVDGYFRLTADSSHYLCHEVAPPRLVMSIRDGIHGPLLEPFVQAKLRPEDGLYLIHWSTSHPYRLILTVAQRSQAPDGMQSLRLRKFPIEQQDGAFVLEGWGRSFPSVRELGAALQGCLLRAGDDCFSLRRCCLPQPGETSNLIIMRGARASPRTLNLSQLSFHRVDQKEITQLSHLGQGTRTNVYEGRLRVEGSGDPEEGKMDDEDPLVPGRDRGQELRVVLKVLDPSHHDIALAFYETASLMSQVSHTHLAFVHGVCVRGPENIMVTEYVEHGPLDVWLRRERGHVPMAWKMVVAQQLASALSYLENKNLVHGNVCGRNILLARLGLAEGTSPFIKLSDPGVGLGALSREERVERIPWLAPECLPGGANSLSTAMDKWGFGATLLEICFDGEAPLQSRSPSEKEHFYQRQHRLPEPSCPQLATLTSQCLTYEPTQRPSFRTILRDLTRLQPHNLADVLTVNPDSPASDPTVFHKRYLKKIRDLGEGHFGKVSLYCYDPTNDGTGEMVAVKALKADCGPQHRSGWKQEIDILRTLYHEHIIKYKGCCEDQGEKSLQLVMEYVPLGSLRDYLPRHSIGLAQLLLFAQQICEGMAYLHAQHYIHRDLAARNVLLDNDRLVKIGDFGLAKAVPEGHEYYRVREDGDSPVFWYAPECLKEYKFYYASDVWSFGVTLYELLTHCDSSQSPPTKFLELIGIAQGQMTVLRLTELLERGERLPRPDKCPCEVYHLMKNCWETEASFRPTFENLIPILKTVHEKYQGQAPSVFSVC

SMILES	pIC50 (JH2 domain of human Tyk2; [1])	pIC50 (Tyk2; MSD)	pIC50 (JH2 domain of human Tyk2; [2])	pIC50 (JH2 domain of human Tyk2; [3])	pIC50 (Tyk2)
CCOc1cnc(NC(C)=O)cc1Nc1cc(F)nc(C(C)(F)F)n1 [Example 94, N-(4-((2-(1,1-difluoroethyl)-6-fluoropyrimidin-4-yl)amino)-5-ethoxypyridin-2-yl)acetamide trifluoroacetate]	≥ 8.00	7.00 to 8.00			
CC(=O)Nc1cc(Nc2cc(C)nc(C(C)(F)F)n2)c(OCC2CC23CC3)cn1 (stereo not drawn) [Example 422, N-(4-((2-(1,1-difluoroethyl)-6-methylpyrimidin-4-yl)amino)-5-(spiro[2.2]pentan-1-ylmethoxy)pyridin-2-yl)acetamide]		7.00 to 8.00	≥ 8.00		
CCc1cc(Nc2cc(NC(C)=O)ncc2-c2cnc(NC)cn2)nc(C(C)(F)F)n1 [Example 860, N-(4-((2-(1,1-difluoroethyl)-6-ethylpyrimidin-4-yl)amino)-5-(5-(methylamino)pyrazin-2-yl)pyridin-2-yl)acetamide]				6.00 to 7.00	≤ 6.00
COCCOc1cncc(-c2cnc(NC(C)=O)cc2Nc2ccnc(C(C)(F)F)n2)n1 [Example 691, N-(4-((2-(1,1-difluoroethyl)pyrimidin-4-yl)amino)-5-(6-(2-methoxyethoxy)pyrazin-2-yl)pyridin-2-yl)acetamide]		6.00 to 7.00	7.00 to 8.00		
CC(=O)Nc1cc(Nc2cc(C)nc(C(C)(F)F)n2)c(-c2ccccn2)cn1 [Example 591, N-(4′-((2-(1,1-difluoroethyl)-6-methylpyrimidin-4-yl)amino)-[2,3′-bipyridin]-6′-yl)acetamide]		≥ 8.00	≥ 8.00		
CC(=O)Nc1cc(Nc2cc(C)nc(C(C)(F)F)n2)c(-c2cc(CN(C)C)n(C)n2)cn1 [Example 287, N-(4-((2-(1,1-difluoroethyl)-6-methylpyrimidin-4-yl)amino)-5-(5-((dimethylamino)methyl)-1-methyl-1H-pyrazol-3-yl)pyridin-2-yl)acetamide]	≥ 8.00	≥ 8.00			
CC(=O)Nc1cc(Nc2cc(C)nc(C(C)(F)F)n2)c(OC[C@H]2C[C@H](F)C2)cn1 [Example 332, N-(4-((2-(1,1-difluoroethyl)-6-methylpyrimidin-4-yl)amino)-5-(((1r,3r)-3-fluorocyclobutyl)methoxy)pyridin-2-yl)acetamide]	≥ 8.00	7.00 to 8.00			
CC(=O)Nc1cc(Nc2cc(C)nc(C(C)(F)F)n2)c(OCCF)cn1 [Example 404, N-(4-((2-(1,1-difluoroethyl)-6-methylpyrimidin-4-yl)amino)-5-(2-fluoroethoxy)pyridin-2-yl)acetamide]		7.00 to 8.00	≥ 8.00		
CC(=O)Nc1cc(Nc2cc(C)nc(C(C)(F)F)n2)c(-c2ncc(C#N)cc2F)cn1 [Example 632, N-(5-cyanO4′-((2-(1,1-difluoroethyl)-6-methylpyrimidin-4-yl)amino)-3-fluorO[2,3′-bipyridin]-6′-yl)acetamide]		≤ 6.00	7.00 to 8.00		
CC(=O)Nc1cc(Nc2ccnc(C(C)(F)F)n2)c(-c2ccc(N3CC4(CCOC4)C3)nn2)cn1 [Example 877, N-(5-(6-(6-oxa-2-azaspiro[3.4]octan-2-yl)pyridazin-3-yl)-4-((2-(1,1-difluoroethyl)pyrimidin-4-yl)amino)pyridin-2-yl)acetamide]				≥ 8.00	≥ 8.00
CC(=O)Nc1cc(Nc2cc(C)nc(C(C)(F)F)n2)c(-c2nc(CN(C)C)cs2)cn1 [Example 784, N-(4-((2-(1,1-difluoroethyl)-6-methylpyrimidin-4-yl)amino)-5-(4-((dimethylamino)methyl)thiazol-2-yl)pyridin-2-yl)acetamide]				≥ 8.00	≥ 8.00
CC(=O)Nc1cc(Nc2cccc(C(C)(F)F)n2)c(-c2ccn(C)c(=O)n2)cn1 [Example 160, N-(4-((6-(1,1-difluoroethyl)pyridin-2-yl)amino)-5-(1-methyl-2-oxo-1,2-dihydropyrimidin-4-yl)pyridin-2-yl)acetamide]	≥ 8.00	≥ 8.00			
COCCNc1cncc(-c2cnc(NC(C)=O)cc2Nc2ccnc(C(C)(F)F)n2)n1 [Example 274, N-(4-((2-(1,1-difluoroethyl)pyrimidin-4-yl)amino)-5-(6-((2-methoxyethyl)amino)pyrazin-2-yl)pyridin-2-yl)acetamide]	≥ 8.00	7.00 to 8.00			
Cc1cc(Nc2cc(NC(N)=O)ncc2-c2ccn(C)n2)nc(C(C)(F)F)n1 [Example 288, 1-(4-((2-(1,1-difluoroethyl)-6-methylpyrimidin-4-yl)amino)-5-(1-methyl-1H-pyrazol-3-yl)pyridin-2-yl)urea]	≥ 8.00	≥ 8.00			
CC(=O)Nc1cc(Nc2cc(C(C)C)nc(C(C)(F)F)n2)c(O[C@H]2C[C@@H](F)C2)cn1 [Example 411, N-(4-((2-(1,1-difluoroethyl)-6-isopropylpyrimidin-4-yl)amino)-5-((1s,3s)-3-fluorocyclobutoxy)pyridin-2-yl)acetamide]		7.00 to 8.00	≥ 8.00		
COc1cc(-c2cnc(NC(C)=O)cc2Nc2ccnc(C(C)(F)F)n2)nc(C)n1 [Example 163, N-(4-((2-(1,1-difluoroethyl)pyrimidin-4-yl)amino)-5-(6-methoxy-2-methylpyrimidin-4-yl)pyridin-2-yl)acetamide]	≥ 8.00	7.00 to 8.00			
COCCOc1cnc(NC(C)=O)cc1Nc1cncc(C(C)(C)F)n1 [Example 439, N-(4-((6-(2-fluoropropan-2-yl)pyrazin-2-yl)amino)-5-(2-methoxyethoxy)pyridin-2-yl)acetamide]		7.00 to 8.00	≥ 8.00		
COCCOc1cnc(NC(C)=O)cc1Nc1cncc(C(F)CF)n1 (stereo not drawn) [Example 89, N-(4-((6-(1,2-difluoroethyl)pyrazin-2-yl)amino)-5-(2-methoxyethoxy)pyridin-2-yl)acetamide]	7.00 to 8.00	7.00 to 8.00			
CC(=O)Nc1cc(Nc2cc(C)nc(C(C)(F)F)n2)c(-c2ccc(F)c(C#N)n2)cn1 [Example 633, N-(6-cyanO4′-((2-(1,1-difluoroethyl)-6-methylpyrimidin-4-yl)amino)-5-fluorO[2,3′-bipyridin]-6′-yl)acetamide]		≥ 8.00	≥ 8.00		
CCc1cc(Nc2cc(NC(C)=O)ncc2-c2cnc(CN3C[C@@H]4C[C@H]3CO4)cn2)nc(C(C)(F)F)n1 [Example 894, N-(5-(5-(((1S,4S)-2-oxa-5-azabicyclo[2.2.1]heptan-5-yl)methyl)pyrazin-2-yl)-4-((2-(1,1-difluoroethyl)-6-ethylpyrimidin-4-yl)amino)pyridin-2-yl)acetamide]				≥ 8.00	≥ 8.00
CC(=O)Nc1cc(Nc2cc(C)nc(C34COC(C3)C4)n2)c(-c2ccc(C(C)F)cn2)cn1 (stereo not drawn) [Example 577, N-(4′-((2-(2-oxabicyclo[2.1.1]hexan-4-yl)-6-methylpyrimidin-4-yl)amino)-5-(1-fluoroethyl)-[2,3′-bipyridin]-6′-yl)acetamide]		≥ 8.00	≥ 8.00		
CC(=O)Nc1cc(Nc2cc(C)nc(C(C)(F)F)n2)c(-c2cnc(C(C)N(C)C)cn2)cn1 (stereo not drawn) [Example 741, N-(4-((2-(1,1-difluoroethyl)-6-methylpyrimidin-4-yl)amino)-5-(5-(1-(dimethylamino)ethyl)pyrazin-2-yl)pyridin-2-yl)acetamide]		≥ 8.00	≥ 8.00		
CC(=O)Nc1cc(Nc2cc(C)nc(C(C)(F)F)n2)c(-c2ncc(CN(C)C)s2)cn1 [Example 737, N-(4-((2-(1,1-difluoroethyl)-6-methylpyrimidin-4-yl)amino)-5-(5-((dimethylamino)methyl)thiazol-2-yl)pyridin-2-yl)acetamide]		≥ 8.00	≥ 8.00		
CC(=O)Nc1cc(Nc2cc(C)nc(C(C)(F)F)n2)c(OCC2CC(=O)N(C(C)C)C2)cn1 (stereo not drawn) [Example 510, N-(4-((2-(1,1-difluoroethyl)-6-methylpyrimidin-4-yl)amino)-5-((1-isopropyl-5-oxopyrrolidin-3-yl)methoxy)pyridin-2-yl)acetamide]		6.00 to 7.00	≥ 8.00		
COCc1ncc(-c2cnc(NC(C)=O)cc2Nc2cc(C)nc(C(C)(F)F)n2)s1 [Example 232, N-(4-((2-(1,1-difluoroethyl)-6-methylpyrimidin-4-yl)amino)-5-(2-(methoxymethyl)thiazol-5-yl)pyridin-2-yl)acetamide]	≥ 8.00	≥ 8.00			
CC(=O)Nc1cc(Nc2ccnc(C(C)(F)F)n2)c(-c2csc(N3CC4(COC4)C3)n2)cn1 [Example 789, N-(5-(2-(2-oxa-6-azaspiro[3.3]heptan-6-yl)thiazol-4-yl)-4-((2-(1,1-difluoroethyl)pyrimidin-4-yl)amino)pyridin-2-yl)acetamide]				≥ 8.00	≥ 8.00
CCOc1cnc(NC(C)=O)cc1Nc1cc(-c2cnn(C(F)F)c2)nc(C(C)(F)F)n1 [Example 303, N-(4-((2-(1,1-difluoroethyl)-6-(1-(difluoromethyl)-1H-pyrazol-4-yl)pyrimidin-4-yl)amino)-5-ethoxypyridin-2-yl)acetamide]	≥ 8.00	7.00 to 8.00			
CCc1cc(Nc2cc(NC(C)=O)ncc2-c2cnc(C(C)(C)O)cn2)nc(C(C)(F)F)n1 [Example 855, N-(4-((2-(1,1-difluoroethyl)-6-ethylpyrimidin-4-yl)amino)-5-(5-(2-hydroxypropan-2-yl)pyrazin-2-yl)pyridin-2-yl)acetamide]				≥ 8.00	≥ 8.00
COCCc1cnn(-c2cnc(NC(C)=O)cc2Nc2cc(C)nc(C(C)(F)F)n2)c1 [Example 764, N-(4-((2-(1,1-difluoroethyl)-6-methylpyrimidin-4-yl)amino)-5-(4-(2-methoxyethyl)-1H-pyrazol-1-yl)pyridin-2-yl)acetamide]				≥ 8.00	7.00 to 8.00
COC1(C)CN(Cc2ccc(-c3cnc(NC(C)=O)cc3Nc3ccnc(C(C)(F)F)n3)nc2)C1 [Example 882, N-(4′-((2-(1,1-difluoroethyl)pyrimidin-4-yl)amino)-5-((3-methoxy-3-methylazetidin-1-yl)methyl)-[2,3′-bipyridin]-6′-yl)acetamide]				≥ 8.00	≥ 8.00
